Literature values, collected in patent publication US20040062802A1, “Maximizing effectiveness of substances used to improve health and well being” (priority 1998, published 2004).
Like-named read-outs stand apart in the source and are kept apart here.

What was measured:
[1] = system: bone marrow cells; details: mouse, in vivo; cited from earlier work
[2] = cited from earlier work
[3] = system: HIV; details: 200 mg AZT orally every 4 hours for 7 day periods alternating with ddC 0.03 mg/kg orally every 4 hours for 7 day periods; cited from earlier work
[4] = system: male patients with clinical of BPH; details: cited from earlier work; for I-PSS Endpoint / Qmax Endpoint: 24 weeks; for I-PSS Endpoint / Qmax Endpoint / I-PSS Baseline / Qmax Baseline: mean; for I-PSS Baseline / Qmax Baseline: after 2 week placebo run-in
[5] = mean, N = 24, cited from earlier work; for AUC0-24 h: 1 mg daily 10 days then 2 mg daily 5 days
[6] = system: mouse model; details: drug received at the beginning of the sleep phase; cited from earlier work
[7] = cited from earlier work; remark: listed apart in the source
[8] = 800 mg group versus 400 mg group

Cc1cn([C@H]2C[C@H](N=[N+]=[N-])[C@@H](CO)O2)c(=O)[nH]c1=O [AZT]
toxicity (peripheral blood parameters, proportion of bone marrow cells arrested at the S-phase gate) [1]: significantly less toxic
duration of the effect of AZT ([2]; 400 mg group versus 800 mg group): significantly longer
AZT withdrawn or dose reduced [2, 8]: reduced more frequently
adverse reaction [2, 8]: more frequently observed
outcome of alternating regimen [3]: promising treatment regimen

COc1cc2nc(N3CCN(C(=O)C4COc5ccccc5O4)CC3)nc(N)c2cc1OC (stereo not shown) [Doxazosin]
clinical efficacy versus placebo ([4]; at 6 weeks and endpoint): significantly differed from placebo
I-PSS Endpoint ([4]; evening (8 pm) dosing): 11.7
Qmax Endpoint ([4]; evening (8 pm) dosing): 12.30 mL/s
I-PSS Mean Change ([4]; evening (8 pm) dosing): −6.7
I-PSS Responders ([4]; evening (8 pm) dosing): 62.6
Qmax Mean Change ([4]; evening (8 pm) dosing): 1.94 mL/s
Qmax Responders ([4]; evening (8 pm) dosing): 28.4
I-PSS Baseline ([4]; evening (8 pm) group): 18.2
Qmax Baseline ([4]; evening (8 pm) group): 10.49 mL/s
I-PSS Endpoint ([4]; morning (8 am) dosing): 11.0
Qmax Endpoint ([4]; morning (8 am) dosing): 11.84 mL/s
I-PSS Mean Change ([4]; morning (8 am) dosing): −6.9
I-PSS Responders ([4]; morning (8 am) dosing): 57.4
Qmax Mean Change ([4]; morning (8 am) dosing): 1.51 mL/s
Qmax Responders ([4]; morning (8 am) dosing): 29.7
I-PSS Baseline ([4]; morning (8 am) group): 18.5
Qmax Baseline ([4]; morning (8 am) group): 10.17 mL/s
AUC0-24 h ([5]; evening dosing (8 pm)): 253.66 ng·h/mL
Cmax ([5]; evening dosing (8 pm)): 15.76 ng/mL
T1/2 ([5]; evening dosing (8 pm)): 18.77 h
Tmax ([5]; evening dosing (8 pm)): 5.60 h
AUC0-24 h ([5]; morning dosing (8 am)): 227.90 ng·h/mL
Cmax ([5]; morning dosing (8 am)): 16.98 ng/mL
T1/2 ([5]; morning dosing (8 am)): 19.52 h
Tmax ([5]; morning dosing (8 am)): 3.46 h

N.N.O=C([O-])C1(C(=O)[O-])CCC1.[Pt+2] [carboplatin, Carboplatin]
marrow toxicity [6]: lowest marrow toxicity
mean survival time [6]: longest mean survival time

COC(=O)C(c1ccccc1)C1CCCCN1 (stereo not shown) [methylphenidate]
plasma profile ([7]; ADD, conventional 10 mg at 7 am and 10 mg at 12 pm, FIG. I solid line): high dosages of the drug would be present in the body throughout the afternoon and early evening
plasma profile ([7]; narcolepsy, conventional 20 mg at 7 am, 10 mg at 12 pm and 10 mg at 5 pm, FIG. II solid line): lower dosages of the drug are present in the patient during the morning hours
